This note sets out measurements from US12642270B2, “Substituted thiophene carboxamides, thiophene carboxylic acids and derivatives thereof” (Bayer Aktiengesellschaft, priority 2019, dated 2026).

The series in a line: Log P by HPLC on reversed phase columns (EEC directive 79/831 Annex V.A8). Format: physicochemical. The conditions noted are these: method [a]. How it is done: In the above tables, measurement of Log P values was performed according to EEC directive 79/831 Annex V.A8 by HPLC (High Performance Liquid Chromatography) on reversed phase columns with the following methods: • ^[a] Log P value is determined by measurement of LC-UV, in an acidic range, with 0.1% formic acid in water and acetonitrile as eluent (linear gradient from 10% acetonitrile to 95% acetonitrile). • ^[b] Log P value is determined by measurement of LC-UV, in a neutral range, with 0.001 molar ammonium acetate solution in water and acetonitrile as eluent (linear gradient from 10% acetonitrile to 95% acetonitrile). • ^[c] Log P value is determined by measurement of LC-UV, in an acidic range, with 0.1% phosphoric acid and acetonitrile as eluent (linear gradient from 10% acetonitrile to 95% acetonitrile). If more than one Log P value is available within the same method, all the values are given and separated by “+”. Calibration was done with straight-chain alkan2-ones (with 3 to 16 carbon atoms) with known Log P values (measurement of Log P values using retention times with linear interpolation between successive alkanones). Lambda-max-values were determined using UV-spectra from 200 nm to 400 nm and the peak values of the chromatographic signals.

The mark [1] stands for this setting: compounds of formula (I), Table 1.1.

Regarding `CCOC(=O)C(CCSC)NC(=O)c1sc(Br)c(Cl)c1C` (stereo not shown) [1.0079], the LogP under setting [1] was 3.94^[a].

Consider `CCOC(=O)C(Cc1ccccc1)NC(=O)c1sc(Br)c(Cl)c1C` (stereo not shown) [1.0080], for which, under setting [1], the LogP was 4.46^[a].

As to `CCOC(=O)CCNC(=O)c1sc(Br)c(Br)c1I` [1.0081], under setting [1], the LogP is 3.48^[a].

With `CCOC(=O)C1(NC(=O)c2sc(Br)c(Br)c2I)CCC1` [1.0082], under setting [1], the LogP was 4.08^[a].

For the molecule `COC(=O)C(CC(F)F)NC(=O)c1sc(Br)c(Br)c1I` (stereo not shown) [1.0083], under setting [1], the LogP was 3.60^[a].

In the case of `CCOC(=O)CCNC(=O)c1sc(Cl)c(Cl)c1Br` [1.0084], under setting [1], the LogP was 3.50^[a].

Consider `CCOC(=O)C1(NC(=O)c2sc(Cl)c(Cl)c2Br)CCC1` [1.0085], for which the LogP under setting [1] is 4.23^[a].

As for `COC(=O)C(CC(F)F)NC(=O)c1sc(Cl)c(Cl)c1Br` (stereo not shown) [1.0086], the LogP under setting [1] is 3.60^[a].

In the case of `CCOC(=O)CNC(=O)c1sc(Br)c(I)c1C` [1.0087], the LogP under setting [1] is 3.09^[a].

With `CCOC(=O)CCNC(=O)c1sc(Br)c(I)c1C` [1.0088], the LogP under setting [1] was 3.23^[a].

Take `CCOC(=O)C1(NC(=O)c2sc(Br)c(I)c2C)CC1` [1.0089]: under setting [1], the LogP is 3.25^[a].

For `CCOC(=O)C1(NC(=O)c2sc(Br)c(I)c2C)CCC1` [1.0090], the LogP under setting [1] was 3.77^[a].

On to `CCOC(=O)C(NC(=O)c1sc(Br)c(I)c1C)C(C)C` (stereo not shown) [1.0091], for which, under setting [1], the LogP is 4.37^[a].

`COC(=O)C(CC(F)F)NC(=O)c1sc(Br)c(I)c1C` (stereo not shown) [1.0092]: under setting [1], the LogP was 3.39^[a].

As for `CCOC(=O)C(CC(C)C)NC(=O)c1sc(Br)c(I)c1C` (stereo not shown) [1.0093], the LogP under setting [1] was 4.66^[a].

As for `CCOC(=O)C(CCSC)NC(=O)c1sc(Br)c(I)c1C` (stereo not shown) [1.0094], under setting [1], the LogP was 4.03^[a].

Regarding `CCOC(=O)C(Cc1ccccc1)NC(=O)c1sc(Br)c(I)c1C` (stereo not shown) [1.0095], the LogP under setting [1] was 4.53^[a].

Consider `CCOC(=O)CNC(=O)c1sc(I)c(Br)c1C` [1.0096], for which, under setting [1], the LogP is 3.02^[a].

`CCOC(=O)CCNC(=O)c1sc(I)c(Br)c1C` [1.0097]: the LogP under setting [1] was 3.17^[a].

As to `CCOC(=O)C1(NC(=O)c2sc(I)c(Br)c2C)CC1` [1.0098], the LogP under setting [1] was 3.19^[a].

In the case of `CCOC(=O)C1(NC(=O)c2sc(I)c(Br)c2C)CCC1` [1.0099], the LogP under setting [1] was 3.71^[a].

For the molecule `CCOC(=O)C(NC(=O)c1sc(I)c(Br)c1C)C(C)C` (stereo not shown) [1.0100], the LogP under setting [1] was 4.30^[a].

Take `COC(=O)C(CC(F)F)NC(=O)c1sc(I)c(Br)c1C` (stereo not shown) [1.0101]: the LogP under setting [1] was 3.33^[a].

For the molecule `CCOC(=O)C(CC(C)C)NC(=O)c1sc(I)c(Br)c1C` (stereo not shown) [1.0102], under setting [1], the LogP was 4.56^[a].

Consider `CCOC(=O)C(CCSC)NC(=O)c1sc(I)c(Br)c1C` (stereo not shown) [1.0103], for which the LogP under setting [1] is 3.96^[a].

For `CCOC(=O)C(Cc1ccccc1)NC(=O)c1sc(I)c(Br)c1C` (stereo not shown) [1.0104], the LogP under setting [1] was 4.46^[a].

Consider `Cc1c(C(=O)NCC#N)sc(Cl)c1Br` [1.0105], for which the LogP under setting [1] was 2.58^[a].

Take `Cc1c(C(=O)NC2(C#N)CC2)sc(Cl)c1Br` [1.0106]: the LogP under setting [1] was 2.78^[a].

As for `Cc1c(C(=O)NC2(C#N)CCC2)sc(Cl)c1Br` [1.0107], the LogP under setting [1] is 4.53^[a].

As to `Cc1c(C(=O)NC(C#N)C(C)C)sc(Cl)c1Br` (stereo not shown) [1.0108], the LogP under setting [1] is 3.63^[a].

For `Cc1c(C(=O)NC(C#N)c2ccccc2)sc(Cl)c1Br` (stereo not shown) [1.0109], the LogP under setting [1] is 3.85^[a].

As for `Cc1c(C(=O)NC(C#N)Cc2ccccc2)sc(Cl)c1Br` (stereo not shown) [1.0110], under setting [1], the LogP was 3.99^[a].

Take `Cc1c(C(=O)NCC#N)sc(Br)c1Cl` [1.0111]: the LogP under setting [1] is 2.54^[a].

On to `Cc1c(C(=O)NC2(C#N)CC2)sc(Br)c1Cl` [1.0112], for which the LogP under setting [1] was 2.75^[a].

With `Cc1c(C(=O)NC(C#N)c2ccccc2)sc(Br)c1Cl` (stereo not shown) [1.0113], under setting [1], the LogP was 3.81^[a].

With `Cc1c(C(=O)NC(C#N)Cc2ccccc2)sc(Br)c1Cl` (stereo not shown) [1.0114], under setting [1], the LogP was 3.92^[a].

Turning to `N#CC1(NC(=O)c2sc(Br)c(Br)c2F)CC1` [1.0115], the LogP under setting [1] is 2.64^[a].

Regarding `N#CC1(NC(=O)c2sc(Br)c(Br)c2F)CCC1` [1.0116], the LogP under setting [1] was 3.11^[a].

On to `N#CC(NC(=O)c1sc(Br)c(Br)c1F)c1ccccc1` (stereo not shown) [1.0117], for which the LogP under setting [1] is 3.65^[a].

For `N#CC(Cc1ccccc1)NC(=O)c1sc(Br)c(Br)c1F` (stereo not shown) [1.0118], the LogP under setting [1] was 3.81^[a].

With `COC(=O)C(NC(=O)c1sc(Cl)c(Br)c1C)C1CC1` (stereo not shown) [1.0119], the LogP under setting [1] was 3.39^[a].

As for `COC(=O)C(NC(=O)c1sc(Br)c(Cl)c1C)C1CC1` (stereo not shown) [1.0120], the LogP under setting [1] is 3.35^[a].

Consider `COC(=O)C(NC(=O)c1sc(Br)c(Br)c1F)C1CC1` (stereo not shown) [1.0121], for which, under setting [1], the LogP is 3.43^[a].

In the case of `CCOC(=O)C(C)NC(=O)c1sc(Cl)c(Br)c1C` (stereo not shown) [1.0122], under setting [1], the LogP was 3.37^[a].

`COC(=O)C(Cc1c[nH]cn1)NC(=O)c1sc(Cl)c(Br)c1C` (stereo not shown) [1.0124]: the LogP under setting [1] was 1.48^[a].

For the molecule `CCOC(=O)C(COC)NC(=O)c1sc(Cl)c(Br)c1C` (stereo not shown) [1.0125], the LogP under setting [1] was 3.44^[a].

For `CCOC(=O)C(Cc1ccc(O)cc1)NC(=O)c1sc(Cl)c(Br)c1C` (stereo not shown) [1.0126], the LogP under setting [1] was 3.33^[a].

Consider `COC(=O)[C@H](CCCNC(=N)N)NC(=O)c1sc(Cl)c(Br)c1C` [1.0127], for which the LogP under setting [1] is 1,66^[a].

In the case of `CCOC(=O)C(Cc1c[nH]c2ccccc12)NC(=O)c1sc(Cl)c(Br)c1C` (stereo not shown) [1.0128], the LogP under setting [1] was 4.15^[a].

With `COC(=O)C(Cc1c[nH]cn1)NC(=O)c1sc(Br)c(Cl)c1C` (stereo not shown) [1.0129], the LogP under setting [1] was 1.47^[a].

With `CCOC(=O)C(Cc1ccc(O)cc1)NC(=O)c1sc(Br)c(Cl)c1C` (stereo not shown) [1.0130], the LogP under setting [1] is 3.29^[a].

In the case of `COC(=O)[C@H](CCCNC(=N)N)NC(=O)c1sc(Br)c(Cl)c1C` [1.0131], under setting [1], the LogP is 1.71^[a].

With `CCOC(=O)C(Cc1c[nH]c2ccccc12)NC(=O)c1sc(Br)c(Cl)c1C` (stereo not shown) [1.0132], the LogP was 4.11^[a].

`CCOC(=O)C(C)NC(=O)c1sc(Br)c(Br)c1F` (stereo not shown) [1.0133]: the LogP is 3.41^[a].

`COC(=O)C(Cc1c[nH]cn1)NC(=O)c1sc(Br)c(Br)c1F` (stereo not shown) [1.0134]: the LogP was 1.39^[a].

Turning to `CCOC(=O)C(COC)NC(=O)c1sc(Br)c(Br)c1F` (stereo not shown) [1.0135], the LogP was 3.46^[a].

In the case of `CCOC(=O)C(Cc1ccc(O)cc1)NC(=O)c1sc(Br)c(Br)c1F` (stereo not shown) [1.0136], the LogP was 3.31^[a].

In the case of `CCOC(=O)C(Cc1c[nH]c2ccccc12)NC(=O)c1sc(Br)c(Br)c1F` (stereo not shown) [1.0137], the LogP was 4.08^[a].

On to `CCOC(=O)C(COC)NC(=O)c1sc(Br)c(Cl)c1C` (stereo not shown) [1.0138], for which the LogP was 3.42^[a].

As for `CCSC(=O)C1(NC(=O)c2sc(Br)c(Br)c2I)CC1` [1.0139], the LogP is 3.96^[a].

On to `CCOC(=O)C(C)NC(=O)c1sc(Br)c(Cl)c1C` (stereo not shown) [1.0140], for which the LogP is 3.35^[a].

`CCOC(=O)CNC(=O)c1sc(Br)c(Br)c1Cl` [1.0142]: the LogP was 3.30^[a].

As for `CCOC(=O)CCNC(=O)c1sc(Br)c(Br)c1Cl` [1.0143], the LogP is 3.53^[a].

Consider `CCOC(=O)C1(NC(=O)c2sc(Br)c(Br)c2Cl)CCC1` [1.0144], for which the LogP is 4.27^[a].

Consider `CCOC(=O)C(NC(=O)c1sc(Br)c(Br)c1Cl)C(C)C` (stereo not shown) [1.0145], for which the LogP is 4.92^[a].

In the case of `COC(=O)C(CC(F)F)NC(=O)c1sc(Br)c(Br)c1Cl` (stereo not shown) [1.0146], the LogP was 3.62^[a].

Consider `CCOC(=O)C(CC(C)C)NC(=O)c1sc(Br)c(Br)c1Cl` (stereo not shown) [1.0147], for which the LogP was 5.19^[a].

Take `CCOC(=O)C(CCSC)NC(=O)c1sc(Br)c(Br)c1Cl` (stereo not shown) [1.0148]: the LogP is 4.46^[a].

Regarding `CCOC(=O)C(Cc1ccccc1)NC(=O)c1sc(Br)c(Br)c1Cl` (stereo not shown) [1.0149], the LogP is 5.00^[a].

Consider `COC(=O)C1(NC(=S)c2sc(Br)c(Br)c2I)CC1` [1.0150], for which the LogP is 3.99^[a].

With `CCOC(=O)[C@@H](NC(=O)c1sc(Br)c(Br)c1F)C(C)C` [1.0151], the LogP was 4.47^[a].

As for `CCOC(=O)[C@H](NC(=O)c1sc(Br)c(Br)c1F)C(C)C` [1.0152], the LogP is 4.47^[a].

Regarding `CCOC(=O)[C@@H](Cc1ccccc1)NC(=O)c1sc(Br)c(Br)c1F` [1.0153], the LogP was 4.55^[a].

Turning to `CCOC(=O)[C@H](Cc1ccccc1)NC(=O)c1sc(Br)c(Br)c1F` [1.0154], the LogP is 4.55^[a].

As for `COC(=O)[C@H](Cc1ccccc1)NC(=O)c1sc(Br)c(Br)c1F` [1.0155], the LogP was 4.12^[a].

Consider `CCOC(=O)[C@@H](CC(C)C)NC(=O)c1sc(Br)c(Br)c1F` [1.0156], for which the LogP is 4.78^[a].

Take `COC(=O)[C@@H](CCSC)NC(=O)c1sc(Br)c(Br)c1F` [1.0158]: the LogP is 3.62^[a].

As for `COC(=O)[C@H](CCSC)NC(=O)c1sc(Br)c(Br)c1F` [1.0159], the LogP is 3.62^[a].

As for `COC(=O)[C@H](CC(N)=O)NC(=O)c1sc(Br)c(Br)c1F` [1.0160], the LogP is 1.94^[a].

In the case of `COC(=O)[C@@H](CC(N)=O)NC(=O)c1sc(Br)c(Br)c1F` [1.0161], the LogP is 1.98^[a].

On to `COC(=O)C1(NC(=O)c2cc(Cl)c(Br)s2)CC1` [1.0162], for which the LogP was 2.48^[a].

On to `COC(=O)C1(NC(=O)c2sc(Br)c(Cl)c2C)CC1` [1.0163], for which the LogP is 2.76^[a].
